{"source": "patent US20080081796A1", "about": "“TREATMENT OF MUCOSITIS” (priority 2002, published 2008)", "tested_on": "oral mucositis induced by acute radiation", "experiment": "oral mucositis induced by acute radiation in an animal model (Animal Study and Animal Study II)", "type": "in vivo, Golden Syrian hamsters", "conditions": "for severity of oral mucositis (average oral mucositis scores, FIG. 1): topical TID 0.25 ml to left cheek pouch, 40 Gy radiation on day 0, versus water control", "excerpt": "The objective of this study was to evaluate the effect of the nucleoside derivative, 5′-adenosine-diphosphate ribose, when administered topically, on the frequency, severity and duration of oral mucositis induced by acute radiation in an animal model.\nThe animals in the study ([…] Golden Syrian hamsters, Charles River Lab., ages 5-6 weeks, approximately 90 g average body weight) were randomly and prospectively divided into three groups of eight animals each. The particular test material to be applied to the animal mucosa during the study essentially defined each group. The test materials were water (Group 1 control), ADP-ribose 100 μg/ml in water (Group 2) and ADP-ribose 500 μg/ml in water (Group 3).\nMucositis was induced in the animals with a standardized acute radiation protocol. A single dose of radiation (40 Gy/dose) was administered to each animal on day 0. Irradiation targeted the left buccal pouch mucosa at a rate of 121.5 cGy/minute. The left buccal pouch was everted, fixed and isolated using a lead shield. Prior to and following radiation on day 0, each animal was dosed with their respective test materials in the manner described below. Also, immediately prior to radiation, the buccal mucosa was everted and any excess test material solution was wiped away using a clean tissue or cotton swab.\nThe respective test materials were then applied topically TID to the irradiated mucosa of each animal on day 1 to day 20 of the study. To accomplish this, a tuberculin syringe without a needle, containing 0.25 ml of the test material, was inserted into the base of the left cheek pouch and the test material deposited accordingly. This was done TID (first between 8-9:00 am; second between […] and 1:00 pm; third between 4-6:00 pm). Any developing mucositis was evaluated and scored on alternate days from day 6-28. Each animal was also weighed and its survival recorded on day 1 to day 28.\nDuring the study, each animal was tested for mucositis scores, weight change and survival. For the evaluation of mucositis, the animals were anesthetized with inhalation anesthetics, and the left pouch everted. The developing mucositis was scored visually by comparison to a validated photographic scale, ranging from 0 for normal, to 5 for severe ulceration (clinical scoring). In descriptive terms, this scale is defined in the following table:\nA mucositis score of 1-2 represents a mild stage of the disease. A score of 3-5 indicates moderate to severe mucositis. Following visual scoring, a photograph was taken of each animal's mucosa using a standardized technique. At the conclusion of the experiment, all film was developed and the photographs randomly numbered. At least two independent trained observers graded the photographs in blinded fashion using the above-described scale (blinded scoring). Results of the mucositis scores are graphically illustrated in FIG. 1.\nThe animal study described in Example 2 was then repeated with an identical protocol but with modified ADP-ribose doses. The groups in this study were treated with water (control), ADP-ribose at 100 μg/ml in water (Compound F), ADP-ribose at 45 μg/ml in water (Compound G), and ADP-ribose at 15 μg/ml in water (Compound H). […] Animals in the control group had mucositis scores ≧3 for approximately 10 days, whereas the ADP-ribose group had scores of approximately 3 for only 4 days."}
{"substance": "5′-adenosine-diphosphate ribose [ADP-ribose]", "values": [{"measurement": "severity of oral mucositis (average oral mucositis scores, FIG. 1)", "setting": "Example 3, ADP-ribose at 100 μg/ml in water (Compound D group)", "result": "decreased the severity of oral mucositis"}, {"measurement": "severity of oral mucositis (average oral mucositis scores, FIG. 1)", "setting": "Example 3, ADP-ribose at 500 μg/ml (Compound E group)", "result": "decreased the severity of oral mucositis"}, {"measurement": "effect on oral mucositis at 100 μg/ml compared with 500 μg/ml", "setting": "Example 3, FIG. 1, comparison of the two ADP-ribose concentrations", "result": "superior to that of ADP-ribose at 500 μg/ml"}, {"measurement": "healing of oral mucositis", "setting": "Example 4, Animal Study II, FIG. 2, ADP-ribose at a 45 μg/ml dose (Compound G)", "result": "maximum healing of oral mucositis that was statistically significant"}, {"measurement": "time with mucositis scores of approximately 3", "setting": "Example 4, Animal Study II, FIG. 2, ADP-ribose group, control group had scores ≧3 for approximately 10 days", "result": 4, "unit": "days"}, {"measurement": "healing of ulcers associated with mucositis (mucositis score ≧3) relative to the control", "setting": "Example 4, Animal Study II, FIG. 2, ADP-ribose treatment groups (100, 45, 15 μg/ml in water)", "result": "healed faster"}]}
